From US20250353845A1, “THYROID HORMONE BETA RECEPTOR AGONIST, CRYSTAL FORM, PREPARATION METHOD AND USE” (KPC PHARMACEUTICALS, INC, priority 2022, published 2025)
Where two headings read alike, the source gives them in different places. One block for each molecule: values may come before it.

Tests used:
[1] = Hygroscopicity of crystalline form A by dynamic vapor sorption (DVS); assay type: physicochemical; details: 25° C. and 80% RH
Method: Instrument model: TA Instruments Q5000 SA dynamic moisture adsorption instrument.
Test conditions: 1 mg to 10 mg sample was weighed and placed in a DVS sample tray for testing.
The detailed DVS parameters were as follows: temperature: 25° C., balance: dm/dt=0.01%/min for 15.00 min, drying: 90 min at 0% RH, RH (%) test gradient: 10% RH (%), test gradient range: 0%-80%-0%.
The hygroscopicity evaluation is classified as follows:
Experimental material: TA Instruments Q5000 SA dynamic moisture adsorption instrument
Experimental method: 1 mg to 10 mg of sample was weighted and placed in a DVS sample tray for testing.

[2] = Solid stability test of crystalline form A; assay type: physicochemical; details: open, 10 days
Text: […] Samples in duplicate were placed under each condition, and the samples for XRPD detection and melting points were placed separately. Samples placed under different conditions were sampled for XRPD detection at the planned test end point, and the test results were compared with the initial test results at Day 0.

[3] = target: thyroid hormone receptor β (THR β) (Homo sapiens, UniProt P10828); test: In vitro enzyme activity test of thyroid receptor β (TR-FRET, binding of THRβ LBD with co-activating peptide SRC2-2); assay type: biochemical
thyroid hormone receptor β (THR β), sequence (P19793 whole entry partner, other chains not shown, the tested form may be a part): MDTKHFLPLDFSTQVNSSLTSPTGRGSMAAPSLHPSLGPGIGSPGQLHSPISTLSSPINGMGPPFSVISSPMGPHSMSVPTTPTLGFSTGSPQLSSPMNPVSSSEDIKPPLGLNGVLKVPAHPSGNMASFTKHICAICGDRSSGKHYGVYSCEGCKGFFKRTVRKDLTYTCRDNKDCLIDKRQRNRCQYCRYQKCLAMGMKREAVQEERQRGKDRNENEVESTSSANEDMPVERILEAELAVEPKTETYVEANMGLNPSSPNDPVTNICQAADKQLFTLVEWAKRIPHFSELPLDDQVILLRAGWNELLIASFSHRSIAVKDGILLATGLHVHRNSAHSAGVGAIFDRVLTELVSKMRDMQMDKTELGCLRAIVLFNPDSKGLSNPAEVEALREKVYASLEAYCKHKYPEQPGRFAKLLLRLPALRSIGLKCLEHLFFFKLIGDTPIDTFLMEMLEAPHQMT
Method: Time-resolved fluorescence resonance energy transfer (TR-FRET) experimental method was used to evaluate the agonist activity in vitro of the compounds to be tested through the binding of thyroid hormone receptor β (THR β) with its co-activating peptide SRC2-2.
GST tag was fused to THR β ligand binding domain (THR β LBD), and its co-activating peptide SRC2-2 was biotinylated. The binding capacity of THR β LBD to SRC2-2 was determined by detecting the tightly bound Europium-labeled anti-GST antibody and Streptavidin labeled with D2 with TR-FRET.
1) the compounds to be tested were dissolved in DMSO to prepare a 30 mM stock solution that could be stored in a dryer at room temperature for three months. If it is stored for a long time, it will be placed in a refrigerator at −20° C.
The activity rate is calculated as follows: […]
Ratio valuepositive control: average value of the ratios of all positive control holes in the whole plate.
Ratio valuenegative control: average value of the ratios of all negative control holes in the whole plate.
The EC50 (half excited concentration) of the compound was obtained by using the following nonlinear fitting formula.
X: log value of compound concentration; Y: activity rate of compound.

[4] = Pharmacokinetic evaluation in rats (liver-blood ratio); assay type: in vivo, CD rats
Method: To determine the pharmacokinetic parameters of the compound represented by formula (I) in rats.
The animals were given the compound at a dose of 5 mg/kg at a concentration of 0.5 mg/mL. Animals were cross-collected for plasma samples at 2, 6 and 10 h after administration. The drug concentration in the plasma samples was determined by LC-MS/MS method, and the kinetic parameters of the test drugs obtained were found in Table 25: […]

[5] = target: T1, thyroid receptor β (THRβ) (Homo sapiens, UniProt P10828); test: Cytological activity test of thyroid receptor β (luciferase reporter gene in HEK293T cells); assay type: cell-based; details: read-out: EC50 of THR β in vitro cell activity
T1 construct: expressed in transfected cells; host or cells: HEK293T
T1 sequence (P10828 217-461 limits assumed): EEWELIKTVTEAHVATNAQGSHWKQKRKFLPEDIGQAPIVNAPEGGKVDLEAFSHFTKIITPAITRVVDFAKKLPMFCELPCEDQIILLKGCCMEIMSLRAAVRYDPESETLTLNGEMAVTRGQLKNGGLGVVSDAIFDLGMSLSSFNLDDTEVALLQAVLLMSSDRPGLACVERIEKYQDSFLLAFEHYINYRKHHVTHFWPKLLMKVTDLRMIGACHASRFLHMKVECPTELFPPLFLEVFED
Text: In this study, the fluorescence reporter gene experiment method was used to evaluate the excitatory effects of the two compounds to be tested on THR β target.
PGL4.35 [luc2P/9XGAL4UAS/Hygro] contains nine GALA-UAS repeat sequences (upstream activation sequences). This sequence drives the transcription of luciferase reporter gene luc2P, in response to the binding of the fusion protein containing Gal4 DNA binding domain with the ligand binding domain of thyroid receptor β (THR β) in pBIND THRβ vector. Stimulation on THRβ by the test sample will lead to the increase of luminescence signal.
The positive compound was dissolved in DMSO to prepare a 5 mM stock solution, and then diluted to a 0.5 mM stock solution. All compounds were dissolved in DMSO and stored in a refrigerator at −20° C. […]
2) HEK293T cells were cultured according to ATCC standard, and the cells were tested in exponential growth period. […] The cells were collected and counted. […]
5) The Britelite plus detection reagent was placed at room temperature. […] Envision was used to detect the luminescence value.
6) Agonism percentage is calculated as follows:
[formula] • RLU: Resulting Luminescence • RLUpositive control: average value of luminescence of all positive control holes in the whole plate. • RLUnegative control: average value of luminescence of all negative control holes in the whole plate. […]

- hygroscopicity classification [1]: slight hygroscopicity
- hygroscopic weight gain ΔW ([1]; DVS): 0.6%
- Crystalline form (XRPD) after storage ([2]; 25° C./65% RH): Crystalline form A
- Crystalline form (XRPD) after storage ([2]; 25° C./85% RH): Crystalline form A
- Crystalline form (XRPD) after storage ([2]; 40° C./75% RH): Crystalline form A
- Crystalline form (XRPD) after storage ([2]; 50° C.): Crystalline form A
Compound: C[C@@H]1CCc2c(Oc3c(Cl)cc(-n4nc(C#N)c(=O)[nH]c4=O)cc3Cl)ccc(=O)n21 [crystalline form A]

- EC50 [3]: 46 nM
- Kp at 2 h ([4]; male, CD, liver/plasma, rat, PO, 5.0 mg/kg, 2 h, read-out: L/P concentration ratio): 7.7
- Kp at 6 h ([4]; male, CD, liver/plasma, rat, PO, 5.0 mg/kg, 6 h, read-out: L/P concentration ratio): 22.1
- Kp at 10 h ([4]; male, CD, liver/plasma, rat, PO, 5.0 mg/kg, 10 h, read-out: L/P concentration ratio): 23.6
- concentration at 2 h ([4]; male, CD, liver, rat, PO, 5.0 mg/kg, 2 h, read-out: Liver drug concentration L): 1180 ng/g
- concentration at 6 h ([4]; male, CD, liver, rat, PO, 5.0 mg/kg, 6 h, read-out: Liver drug concentration L): 746 ng/g
- concentration at 10 h ([4]; male, CD, liver, rat, PO, 5.0 mg/kg, 10 h, read-out: Liver drug concentration L): 238 ng/g
- concentration at 2 h ([4]; male, CD, plasma, rat, PO, 5.0 mg/kg, 2 h, read-out: Blood drug concentration P): 153 ng/mL
- concentration at 6 h ([4]; male, CD, plasma, rat, PO, 5.0 mg/kg, 6 h, read-out: Blood drug concentration P): 33.8 ng/mL
- concentration at 10 h ([4]; male, CD, plasma, rat, PO, 5.0 mg/kg, 10 h, read-out: Blood drug concentration P): 10.1 ng/mL
- half-life ([4]; male, CD, plasma, rat, PO, 5.0 mg/kg, read-out: T½ (converted)): 3.7 h
- blood drug concentration ([4]; rats): low
- liver drug concentration ([4]; rats): relatively high
- liver targeting ([4]; rats): good liver targeting properties
- EC50 [5]: 214 nM
Compound: C[C@@H]1CCc2c(Oc3c(Cl)cc(-n4nc(C#N)c(=O)[nH]c4=O)cc3Cl)ccc(=O)n21 [Compound represented by formula (I)]
- liver targeting (conclusion) ([4]; rat, PO, 5.0 mg/kg): Conclusion: The blood drug concentration of the compound represented by formula (I) in rats was relatively low, and the liver drug concentration was relatively high, so the compound represented by formula (I) has good liver targeting.
